Assay results: patent publication US12202835B2, “Substituted aromatic ring-linked dioxinoquinazolines and dioxinoquinolines as kinase inhibitors” (BEIJING SCITECH-MQ PHARMACEUTICALS LIMITED, priority 2018, dated 2025)

Key:
c-MET kinase = c-MET kinase (Homo sapiens (Human), UniProt P08581); experiment: Assay of small molecular compounds for inhibiting the activity of c-MET kinase (LANCE TR-FRET); assay type: biochemical; settings: read-out: CMET IC50
Procedure, shortened: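 LANCE TR-FRET assay with c-MET at 1 nM final after a 5 min room-temperature preincubation with compound (11-point, 3-fold series, 2500–0.042 nM final, 4% DMSO). ULight-JAK-1 (Tyr1023) peptide (100 nM final) and ATP (10 μM final) reacted 60 min in the dark. Inhibition was taken relative to controls, then IC50 fitted.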

Ba/F3-AXL cells = experiment: Assay for inhibiting the proliferation of Ba/F3-AXL cells (CCK-8); assay type: cell-based; settings: 72 hours of incubation, medium with 100 ng/mL hGas6, CCK-8
Procedure: The values were then imported into Graphpad Prism 5 software for curve fitting, and IC50 was calculated.

MHCC97H cells = experiment: Assay for inhibiting the proliferation of MHCC97H cells (CCK-8); assay type: cell-based; settings: Homo sapiens
Procedure, shortened: (§1)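 Cells seeded in 96-well plates overnight, then exposed 72 h to 9 three-fold dilutions of compound (0.25% DMSO final). Viability by CCK-8 (1-2 h at 37° C., OD 450 nm), survival normalized to untreated and cell-free blanks; IC50 by curve fitting.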

EBC1 cells = experiment: Assay for inhibiting the proliferation of EBC1 cells (CCK-8); assay type: cell-based; settings: Homo sapiens, EBC-1
Procedure, shortened: as §1

Ba/F3 LMNA-NTRK1 cells = experiment: Assay for inhibiting the proliferation of Ba/F3 LMNA-NTRK1 cells (CCK-8); assay type: cell-based; settings: Mus musculus, BaF3
Procedure, shortened: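 Cells were seeded and cultured overnight, then treated with graded compound concentrations (final DMSO 0.25%) for 72 h. CCK-8 was added for 1–2 h at 37 °C and OD450 read. Survival was normalised to untreated and cell-free blank wells, and IC50 was fitted.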

Chain of c-MET kinase (P08581 25-1390): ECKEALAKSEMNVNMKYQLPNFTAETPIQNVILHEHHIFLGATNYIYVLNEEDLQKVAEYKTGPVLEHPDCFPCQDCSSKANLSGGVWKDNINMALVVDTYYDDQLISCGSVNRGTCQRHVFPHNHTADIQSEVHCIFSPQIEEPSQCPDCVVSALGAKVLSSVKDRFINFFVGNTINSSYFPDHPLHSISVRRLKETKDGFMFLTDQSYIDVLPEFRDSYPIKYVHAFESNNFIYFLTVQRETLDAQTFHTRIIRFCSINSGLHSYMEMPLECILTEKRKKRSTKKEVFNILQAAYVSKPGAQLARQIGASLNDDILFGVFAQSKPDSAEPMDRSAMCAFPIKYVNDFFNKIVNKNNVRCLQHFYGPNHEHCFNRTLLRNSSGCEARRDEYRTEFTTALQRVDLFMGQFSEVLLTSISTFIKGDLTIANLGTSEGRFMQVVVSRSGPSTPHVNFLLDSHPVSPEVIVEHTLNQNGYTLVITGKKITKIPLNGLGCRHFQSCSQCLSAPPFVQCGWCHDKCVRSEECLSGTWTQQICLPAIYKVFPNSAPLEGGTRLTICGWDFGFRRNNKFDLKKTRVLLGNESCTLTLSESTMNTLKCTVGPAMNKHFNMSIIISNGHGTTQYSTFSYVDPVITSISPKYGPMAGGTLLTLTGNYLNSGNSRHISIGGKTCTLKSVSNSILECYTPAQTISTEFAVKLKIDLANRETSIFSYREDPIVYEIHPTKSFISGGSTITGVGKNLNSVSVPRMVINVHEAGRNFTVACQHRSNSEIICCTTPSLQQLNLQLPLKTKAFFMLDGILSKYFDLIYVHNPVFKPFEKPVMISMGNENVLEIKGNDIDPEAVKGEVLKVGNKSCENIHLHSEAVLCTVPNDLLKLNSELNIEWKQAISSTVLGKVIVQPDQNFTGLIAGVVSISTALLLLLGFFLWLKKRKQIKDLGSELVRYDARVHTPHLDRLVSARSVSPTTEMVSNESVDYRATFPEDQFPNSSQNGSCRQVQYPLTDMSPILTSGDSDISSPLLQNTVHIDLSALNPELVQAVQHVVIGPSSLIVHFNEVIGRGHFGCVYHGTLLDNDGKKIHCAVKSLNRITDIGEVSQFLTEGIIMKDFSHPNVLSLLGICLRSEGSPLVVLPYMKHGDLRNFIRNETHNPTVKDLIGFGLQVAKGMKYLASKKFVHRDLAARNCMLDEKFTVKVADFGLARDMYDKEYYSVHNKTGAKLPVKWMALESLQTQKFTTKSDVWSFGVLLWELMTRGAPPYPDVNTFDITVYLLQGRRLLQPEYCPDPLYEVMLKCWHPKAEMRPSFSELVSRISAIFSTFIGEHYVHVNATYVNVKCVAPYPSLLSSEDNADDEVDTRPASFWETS

SMILES | IC50 (c-MET kinase) [nM] | IC50 (Ba/F3-AXL cells) [nM] | IC50 (MHCC97H cells) [nM] | IC50 (EBC1 cells) [nM] | IC50 (Ba/F3 LMNA-NTRK1 cells) [nM]
COc1cc2ncnc(Oc3ccc(NC(=O)c4cccn(-c5ccc(F)cc5)c4=O)cc3F)c2c2c1OCCO2 [Example 1, N-(3-fluoro-4-((5-methoxy-2,3-dihydro-[1,4]dioxino[2,3-f]quinazolin-10-yl)oxy)phenyl)-1-(4-fluorophenyl)-2-oxo-1,2-dihydropyridine-3-carboxamide] | ≤ 50 | < 50 | ≤ 50 | 50 to 200 | –
COc1cc2ncnc(Oc3ccc(NC(=O)c4c(OC)ccn(-c5ccc(F)cc5)c4=O)cc3F)c2c2c1OCCO2 [Example 2, N-(3-fluoro-4-((5-methoxy-2,3-dihydro-[1,4]dioxino[2,3-f]quinazolin-10-yl)oxy)phenyl)-1-(4-fluorophenyl)-4-methoxy-2-oxo-1,2-dihydropyridine-3-carboxamide] | ≤ 50 | < 50 | 200 to 1000 | 50 to 200 | –
CCOc1ccn(-c2ccc(F)cc2)c(=O)c1C(=O)Nc1ccc(Oc2ncnc3cc(OC)c4c(c23)OCCO4)c(F)c1 [Example 3, N-(3-fluoro-4-((5-methoxy-2,3-dihydro-[1,4]dioxino[2,3-f]quinazolin-10-yl)oxy)phenyl)-1-(4-fluorophenyl)-4-ethoxy-2-oxo-1,2-dihydropyridine-3-carboxamide] | ≤ 50 | – | 50 to 200 | 50 to 200 | –
COc1cn(-c2ccc(F)cc2C)nc1C(=O)Nc1ccc(Oc2ncnc3cc(OCCCN4CCOCC4)c4c(c23)OCCO4)c(F)c1 [Example 11, 1-(4-fluoro-2-methylphenyl)-N-(3-fluoro-4-((5-(3-morpholinopropoxy)-2,3-dihydro-[1,4]dioxino[2,3-f]quinazolin-10-yl)oxy)phenyl)-4-methoxy-1H-pyrazole-3-carboxamide] | ≤ 50 | – | 200 to 1000 | 200 to 1000 | –
CCOc1cn(-c2ccc(F)cc2C)nc1C(=O)Nc1ccc(Oc2ncnc3cc(OCCCN4CCOCC4)c4c(c23)OCCO4)c(F)c1 [Example 12, 1-(4-fluoro-2-methylphenyl)-N-(3-fluoro-4-((5-(3-morpholinopropoxy)-2,3-dihydro-[1,4]dioxino[2,3-f]quinazolin-10-yl)oxy)phenyl)-4-ethoxy-1H-pyrazole-3-carboxamide] | ≤ 50 | – | 50 to 200 | 200 to 1000 | –
CCn1cc(C(=O)Nc2ccc(Oc3ccnc4cc(OCCOC)c5c(c34)OCCO5)c(F)c2)c(=O)n(-c2ccc(F)cc2)c1=O [Example 44, N-(3-fluoro-4-((5-(2-methoxyethoxy)-2,3-dihydro-[1,4]dioxino[2,3-f]quinolin-10-yl)oxy)phenyl)-3-(4-fluorophenyl)-1-ethyl-2,4-dioxo-1,2,3,4-tetrahydropyrimidine-5-carboxamide] | ≤ 50 | < 50 | ≤ 50 | ≤ 50 | < 50
COc1cc2nccc(Oc3ccc(NC(=O)c4cn(CCO)c(=O)n(-c5ccc(F)cc5)c4=O)cc3F)c2c2c1OCCO2 [Example 45, N-(3-fluoro-4-((5-methoxy-2,3-dihydro-[1,4]dioxino[2,3-f]quinolin-10-yl)oxy)phenyl)-3-(4-fluorophenyl)-1-(2-hydroxyethyl)-2,4-dioxo-1,2,3,4-tetrahydropyrimidine-5-carboxamide] | ≤ 50 | < 50 | 200 to 1000 | 50 to 200 | –
COCCn1cc(C(=O)Nc2ccc(Oc3ccnc4cc(OC)c5c(c34)OCCO5)c(F)c2)c(=O)n(-c2ccc(F)cc2)c1=O [Example 46, N-(3-fluoro-4-((5-methoxy-2,3-dihydro-[1,4]dioxino[2,3-f]quinolin-10-yl)oxy)phenyl)-3-(4-fluorophenyl)-1-(2-methoxyethyl)-2,4-dioxo-1,2,3,4-tetrahydropyrimidine-5-carboxamide] | ≤ 50 | < 50 | ≤ 50 | ≤ 50 | < 50
CCOc1ccn(-c2ccc(F)cc2)c(=O)c1C(=O)Nc1ccc(Oc2ccnc3cc(OCCCN4CCCC4)c4c(c23)OCCO4)c(F)c1 [Example 52, N-(4-((5-(3-(pyrrolidin-1-yl)propoxy)-2,3-dihydro-[1,4]dioxino[2,3-f]quinolin-10-yl)oxy)-3-fluorophenyl)-4-ethoxy-1-(4-fluorophenyl)-2-oxo-1,2-dihydropyridine-3-carboxamide] | ≤ 50 | < 50 | ≤ 50 | – | < 50
CCOc1ccn(-c2ccc(F)cc2)c(=O)c1C(=O)Nc1ccc(Oc2ccnc3cc(OC(C)C)c4c(c23)OCCO4)c(F)c1 [Example 63, N-(4-((5-isopropoxy-2,3-dihydro-[1,4]dioxino[2,3-f]quinolin-10-yl)oxy)-3-fluorophenyl)-4-ethoxy-1-(4-fluorophenyl)-2-oxo-1,2-dihydropyridine-3-carboxamide] | ≤ 50 | < 50 | 50 to 200 | ≤ 50 | –
CC(C)n1cc(C(=O)Nc2ccc(Oc3ccnc4cc(OCCO)c5c(c34)OCCO5)c(F)c2)c(=O)n(-c2ccc(F)cc2)c1=O [Example 78, N-(3-fluoro-4-((5-(2-hydroxyethoxy)-2,3-dihydro-[1,4]dioxino[2,3-f]quinolin-10-yl)oxy)phenyl)-3-(4-fluorophenyl)-1-isopropyl-2,4-dioxo-1,2,3,4-tetrahydropyrimidine-5-carboxamide] | ≤ 50 | < 50 | – | – | < 50
Cn1cc(C(=O)Nc2ccc(Oc3ccnc4cc(OC5CCOC5)c5c(c34)OCCO5)c(F)c2)c(=O)n(-c2ccc(F)cc2)c1=O (stereo not drawn) [Example 90, N-(3-fluoro-4-((5-((tetrahydrofuran-3-yl)oxy)-2,3-dihydro-[1,4]dioxino[2,3-f]quinolin-10-yl)oxy)phenyl)-3-(4-fluorophenyl)-1-methyl-2,4-dioxo-1,2,3,4-tetrahydropyrimidine-5-carboxamide] | ≤ 50 | < 50 | – | – | < 50
Cn1cc(C(=O)Nc2ccc(Oc3ccnc4cc(OC5CCOCC5)c5c(c34)OCCO5)c(F)c2)c(=O)n(-c2ccc(F)cc2)c1=O [Example 91, N-(3-fluoro-4-((5-((tetrahydropyran-4-yl)oxy)-2,3-dihydro-[1,4]dioxino[2,3-f]quinolin-10-yl)oxy)phenyl)-3-(4-fluorophenyl)-1-methyl-2,4-dioxo-1,2,3,4-tetrahydropyrimidine-5-carboxamide] | ≤ 50 | < 50 | – | – | < 50
CC(C)n1cc(C(=O)Nc2ccc(Oc3ccnc4cc(OCCCN5CCC(C)(C)CC5)c5c(c34)OCCO5)c(F)c2)c(=O)n(-c2ccc(F)cc2)c1=O [Example 92, N-(3-fluoro-4-((5-(3-(4,4-dimethylpiperidin-1-yl)propoxy)-2,3-dihydro-[1,4]dioxino[2,3-f]quinolin-10-yl)oxy)phenyl)-3-(4-fluorophenyl)-1-isopropyl-2,4-dioxo-1,2,3,4-tetrahydropyrimidine-5-carboxamide] | 50 to 500 | < 50 | – | – | 50 to 200
CC(C)n1cc(C(=O)Nc2ccc(Oc3ccnc4cc(OCCCN5CCC(C)(N)CC5)c5c(c34)OCCO5)c(F)c2)c(=O)n(-c2ccc(F)cc2)c1=O [Example 93, N-(3-fluoro-4-((5-(3-(4-amino-4-methylpiperidin-1-yl)propoxy)-2,3-dihydro-[1,4]dioxino[2,3-f]quinolin-10-yl)oxy)phenyl)-3-(4-fluorophenyl)-1-isopropyl-2,4-dioxo-1,2,3,4-tetrahydropyrimidine-5-carboxamide] | ≤ 50 | < 50 | – | – | 200 to 1000
